The results in this text go back to patent US12421207B2 (CMG Pharmaceutical Co., Ltd., priority 2022, dated 2025).

One experiment relates to HCC827/OR cells. The experiment in a line: Cell viability assay (CellTiter-Glo 2.0), osimertinib-resistant HCC827/OR cells. The class given is cell-based, human. Conditions: Homo sapiens, HCC827; Table 4; 72 h drug treatment, combinations of EGFR TKIs and inhibitor of Formula (I); read-out: Relative cell viability; IC50 HCC827OR. The source says:
(§1) To explore c-MET and AXL mechanisms of EGFR TKI resistance, resistant cells of the EGFR TKI hypersensitive EGFR exon 19 mutant NSCLC cell line, HCC827 and PC9 were generated by exposing these cells to increasing concentrations of EGFR TKI for over 3 months.
(§2) Gefitinib-resistant cells were referred to as HCC827/GR. […] Osimertinib-resistant cells were referred to as HCC827/OR.
A general note: ATP-based viability assays read luminescence as a measure of living cells.

In a further experiment the test system is PC9/ER cells. The experiment in a line: Cell viability assay (CellTiter-Glo 2.0), erlotinib-resistant PC9/ER cells. Type of experiment: cell-based. Conditions: Homo sapiens, PC-9/ER; Table 4; 72 h drug treatment, combinations of EGFR TKIs and inhibitor of Formula (I); read-out: Relative cell viability; IC50 PC9ER.
From the text: as §1, §2

A further experiment deals with HCC827/GR cells. The experiment in a line: Cell viability assay (CellTiter-Glo 2.0), gefitinib-resistant HCC827/GR cells. Type of experiment: cell-based, human. The settings on record: Homo sapiens, HCC827; Table 4; 72 h drug treatment, combinations of EGFR TKIs and inhibitor of Formula (I); read-out: Relative cell viability; IC50 HCC827GR. A digest of the protocol:
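Gefitinib-resistant HCC827 cells, derived by over 3 months' escalating EGFR TKI exposure, seeded at 1,000 cells/well. Treated 72 h with a 10-point dose range from 1 nM to 10,000 nM. Viability read by CellTiter-Glo 2.0 luminescence.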

The subject of a further experiment is HCC827/ER cells. The experiment in a line: Cell viability assay (CellTiter-Glo 2.0), erlotinib-resistant HCC827/ER cells. The class given is cell-based, human. Conditions: Homo sapiens, HCC827ER, Table 4, 72 h drug treatment, combinations of EGFR TKIs and inhibitor of Formula (I), read-out: Relative cell viability.
From the text: as §1, §2

As for `Nc1nccc(Oc2ccc(NC(=O)c3c[nH]c(=O)n(-c4ccc(F)cc4)c3=O)cc2F)c1C#CCN1CCOCC1` [Example 51, N-(4-(2-amino-3-(3-morpholinoprop-1-ynyl)pyridin-4-yloxy)-3-fluorophenyl)-3-(4-fluorophenyl)-2,4-dioxo-1,2,3,4-tetrahydropyrimidine-5-carboxamide], the IC50 was < 1 µM with HCC827/OR cells, < 1 µM in the experiment with PC9/ER cells, < 10 µM in the experiment on HCC827/GR cells and < 1 µM with HCC827/ER cells.

For the molecule `CC(C)(C#Cc1c(Oc2ccc(NC(=O)c3c[nH]c(=O)n(-c4ccc(F)cc4)c3=O)cc2F)ccnc1N)N1CCNCC1` [Example 52, N-(4-(2-amino-3-(3-methyl-3-(piperazin-1-yl)but-1-ynyl)pyridin-4-yloxy)-3-fluorophenyl)-3-(4-fluorophenyl)-2,4-dioxo-1,2,3,4-tetrahydropyrimidine-5-carboxamide], the IC50 in the experiment on HCC827/OR cells is > 10 µM; in the experiment on PC9/ER cells, < 10 µM; in the experiment with HCC827/GR cells it was < 10 µM; in the experiment on HCC827/ER cells it was < 10 µM.

For the molecule `Nc1nccc(Oc2ccc(NC(=O)c3c[nH]c(=O)n(-c4ccc(F)cc4)c3=O)cc2F)c1C#CCC1CCNCC1` [Example 53, N-(4-(2-amino-3-(3-(piperidin-4-yl)prop-1-ynyl)pyridin-4-yloxy)-3-fluorophenyl)-3-(4-fluorophenyl)-2,4-dioxo-1,2,3,4-tetrahydropyrimidine-5-carboxamide], the IC50 with HCC827/OR cells is < 10 µM; in the experiment on PC9/ER cells, < 10 µM; in the experiment with HCC827/GR cells it was < 10 µM; in the experiment with HCC827/ER cells, < 1 µM.

Consider `CN1CCC(CC#Cc2c(Oc3ccc(NC(=O)c4c[nH]c(=O)n(-c5ccc(F)cc5)c4=O)cc3F)ccnc2N)CC1` [Example 54, N-(4-(2-amino-3-(3-(1-methylpiperidin-4-yl)prop-1-ynyl)pyridin-4-yloxy)-3-fluorophenyl)-3-(4-fluorophenyl)-2,4-dioxo-1,2,3,4-tetrahydropyrimidine-5-carboxamide], for which the IC50 in the experiment on HCC827/OR cells, in the experiment on PC9/ER cells, in the experiment on HCC827/GR cells and with HCC827/ER cells was < 1 µM each time.

`CC(C)(C#Cc1c(Oc2ccc(NC(=O)c3cn(C4CCOCC4)c(=O)n(-c4ccc(F)cc4)c3=O)cc2F)ccnc1N)N1CCOCC1` [Example 55, N-(4-(2-amino-3-(3-methyl-3-morpholinobut-1-ynyl)pyridin-4-yloxy)-3-fluorophenyl)-3-(4-fluorophenyl)-2,4-dioxo-1-(tetrahydro-2H-pyran-4-yl)-1,2,3,4-tetrahydropyrimidine-5-carboxamide]: the IC50 in the experiment on HCC827/OR cells is < 1 µM; in the experiment on PC9/ER cells it was < 1 µM; in the experiment with HCC827/GR cells, < 0.1 µM; in the experiment with HCC827/ER cells, < 0.1 µM.

In the case of `Nc1nccc(Oc2ccc(NC(=O)c3cn(C4CCOCC4)c(=O)n(-c4ccc(F)cc4)c3=O)cc2F)c1C#CCN1CCOCC1` [Example 56, N-(4-(2-amino-3-(3-morpholinoprop-1-ynyl)pyridin-4-yloxy)-3-fluorophenyl)-3-(4-fluorophenyl)-2,4-dioxo-1-(tetrahydro-2H-pyran-4-yl)-1,2,3,4-tetrahydropyrimidine-5-carboxamide], the IC50 in the experiment with HCC827/OR cells was < 1 µM; in the experiment with PC9/ER cells, < 1 µM; in the experiment with HCC827/GR cells, < 0.1 µM; in the experiment on HCC827/ER cells, < 0.01 µM.

For the molecule `CN1CCN(C(C)(C)C#Cc2c(Oc3ccc(NC(=O)c4cn(C5CCOCC5)c(=O)n(-c5ccc(F)cc5)c4=O)cc3F)ccnc2N)CC1` [Example 57, N-(4-(2-amino-3-(3-methyl-3-(4-methylpiperazin-1-yl)but-1-ynyl)pyridin-4-yloxy)-3-fluorophenyl)-3-(4-fluorophenyl)-2,4-dioxo-1-(tetrahydro-2H-pyran-4-yl)-1,2,3,4-tetrahydropyrimidine-5-carboxamide], the IC50 in the experiment with HCC827/OR cells is < 1 µM; in the experiment with PC9/ER cells, < 1 µM; with HCC827/GR cells, < 0.1 µM; in the experiment on HCC827/ER cells it was < 0.1 µM.

Regarding `CC(C)(C#Cc1c(Oc2ccc(NC(=O)c3cn(C4CCOCC4)c(=O)n(-c4ccc(F)cc4)c3=O)cc2F)ccnc1N)N1CCNCC1` [Example 58, N-(4-(2-amino-3-(3-methyl-3-(piperazin-1-yl)but-1-ynyl)pyridin-4-yloxy)-3-fluorophenyl)-3-(4-fluorophenyl)-2,4-dioxo-1-(tetrahydro-2H-pyran-4-yl)-1,2,3,4-tetrahydropyrimidine-5-carboxamide], the IC50 with HCC827/OR cells, in the experiment on PC9/ER cells, in the experiment with HCC827/GR cells and in the experiment on HCC827/ER cells was < 1 µM each time.

In the case of `Nc1nccc(Oc2ccc(NC(=O)c3cn(C4CCOCC4)c(=O)n(-c4ccc(F)cc4)c3=O)cc2F)c1C#CCC1CCNCC1` [Example 59, N-(4-(2-amino-3-(3-(piperidin-4-yl)prop-1-ynyl)pyridin-4-yloxy)-3-fluorophenyl)-3-(4-fluorophenyl)-2,4-dioxo-1-(tetrahydro-2H-pyran-4-yl)-1,2,3,4-tetrahydropyrimidine-5-carboxamide], the IC50 in the experiment with HCC827/OR cells, in the experiment on PC9/ER cells, in the experiment on HCC827/GR cells and in the experiment on HCC827/ER cells was < 1 µM each time.

Take `CN1CCC(CC#Cc2c(Oc3ccc(NC(=O)c4cn(C5CCOCC5)c(=O)n(-c5ccc(F)cc5)c4=O)cc3F)ccnc2N)CC1` [Example 60, N-(4-(2-amino-3-(3-(1-methylpiperidin-4-yl)prop-1-ynyl)pyridin-4-yloxy)-3-fluorophenyl)-3-(4-fluorophenyl)-2,4-dioxo-1-(tetrahydro-2H-pyran-4-yl)-1,2,3,4-tetrahydropyrimidine-5-carboxamide]: the IC50 in the experiment on HCC827/OR cells, in the experiment with PC9/ER cells, in the experiment with HCC827/GR cells and in the experiment on HCC827/ER cells was < 0.1 µM throughout.

In the case of `C=CCn1cc(C(=O)Nc2ccc(Oc3ccnc(N)c3C#CCN3CCOCC3)c(F)c2)c(=O)n(CC=C)c1=O` [Example 67, 1,3-diallyl-N-(4-(2-amino-3-(3-morpholinoprop-1-ynyl)pyridin-4-yloxy)-3-fluorophenyl)-2,4-dioxo-1,2,3,4-tetrahydropyrimidine-5-carboxamide], the IC50 with HCC827/OR cells was < 1 µM; in the experiment with PC9/ER cells, < 1 µM; with HCC827/GR cells, < 0.1 µM; in the experiment with HCC827/ER cells, < 0.1 µM.

`C=CCn1cc(C(=O)Nc2ccc(Oc3ccnc(N)c3C#CC(C)(C)N3CCN(C)CC3)c(F)c2)c(=O)n(CC=C)c1=O` [Example 68, 1,3-diallyl-N-(4-(2-amino-3-(3-methyl-3-(4-methylpiperazin-1-yl)but-1-ynyl)pyridin-4-yloxy)-3-fluorophenyl)-2,4-dioxo-1,2,3,4-tetrahydropyrimidine-5-carboxamide]: the IC50 in the experiment on HCC827/OR cells is < 1 µM; in the experiment with PC9/ER cells, < 10 µM; with HCC827/GR cells, < 1 µM; in the experiment on HCC827/ER cells, < 1 µM.

Regarding `C=CCn1cc(C(=O)Nc2ccc(Oc3ccnc(N)c3C#CCC3CCN(C)CC3)c(F)c2)c(=O)n(CC=C)c1=O` [Example 69, 1,3-diallyl-N-(4-(2-amino-3-(3-(1-methylpiperdin-4-yl)prop-1-ynyl)pyridin-4-yloxy)-3-fluorophenyl)-2,4-dioxo-1,2,3,4-tetrahydropyrimidine-5-carboxamide], the IC50 with HCC827/OR cells, in the experiment with PC9/ER cells, with HCC827/GR cells and with HCC827/ER cells was < 1 µM each time.

Turning to `C=CCn1cc(C(=O)Nc2ccc(Oc3ccnc(N)c3C#CC(C)(C)N3CCOCC3)c(F)c2)c(=O)n(CC=C)c1=O` [Example 70, 1,3-diallyl-N-(4-(2-amino-3-(3-methyl-3-morpholinobut-1-ynyl)pyridin-4-yloxy)-3-fluorophenyl)-2,4-dioxo-1,2,3,4-tetrahydropyrimidine-5-carboxamide], the IC50 in the experiment with HCC827/OR cells was < 1 µM; in the experiment on PC9/ER cells it was < 10 µM; in the experiment on HCC827/GR cells, < 1 µM; in the experiment with HCC827/ER cells it was < 1 µM.

In the case of `C=CCn1cc(C(=O)Nc2ccc(Oc3ccnc(N)c3C#CCC3CCNCC3)c(F)c2)c(=O)n(CC=C)c1=O` [Example 71, 1,3-dialyl-N-(4-(2-amino-3-(3-(piperidin-4-yl)prop-1-ynyl)pyridin-4-yloxy)-3-fluorophenyl)-2,4-dioxo-1,2,3,4-tetrahydropyrimidine-5-carboxamide], the IC50 in the experiment on HCC827/OR cells, with PC9/ER cells, in the experiment with HCC827/GR cells and with HCC827/ER cells was < 1 µM each time.
